From patent publication US20230181472A1, “PROCESS OF MAKING IVABRADINE HYDROCHLORIDE DRUG PRODUCT” (Amgen Inc., priority 2018, published 2023)
Structures can show the parent of a compound that is named as a salt.

Assay: FT-Raman peak width (FWHM) at 705 cm^−1 as a measure of amorphous ivabradine hydrochloride
Format: physicochemical
Details: peak heights normalized at 705 cm^−1, broader peak = more amorphous content
Text: During characterization of the ivabradine hydrochloride chrystalline forms, Fourier Transform Raman Spectroscopy was used to evaluate different peak shapes. A Thermo Scientific Nicolet NXR FT-Raman equipped with liquid nitrogen cooled germanium (Ge) detector (Thermo Scientific) was used for FT-Raman signal collection. Peak broadening was most defined at a Raman shift of 705 cm^−1. The peak heights were normalized at 705 cm^−1 and the width of the peak was characterized as full width at half maximum (FWHM). Table 3 highlights the FWHM of pure tetrahydrate and amorphous drug substance with an approximate doubling of peak width for purely amorphous ivabradine hydrochloride. […] Modifying the process conditions as described herein produced FWHM values of 10.3 and 9.6 cm^−1 for the 5 mg and 7.5 mg drug products respectively showing the significant reduction in the amount of amorphous ivabradine hydrochloride present in the drug product.

SMILES	FWHM (cm^−1) of 705 cm^−1 peak [cm⁻¹]
COc1cc2c(cc1OC)CC(=O)N(CCCN(C)C[C@H]1Cc3cc(OC)c(OC)cc31)CC2 [Ivabradine hydrochloride tetrahydrate (pure)]	8.4
COc1cc2c(cc1OC)CC(=O)N(CCCN(C)C[C@H]1Cc3cc(OC)c(OC)cc31)CC2 [Ivabradine hydrochloride amorphous (pure)]	16.3
